Test results taken from patent US11066369B2, “N-(pyridin-2-yl)pyridine-sulfonamide derivatives and their use in the treatment of disease” (Novartis AG, priority 2016, dated 2021).
Where a name gives a salt, the structure may show the parent alone.

Target: T1, horseradish peroxidase (HRP) tagged delF508-CFTR (Homo sapiens, UniProt P13569, DEL508-508)
T1 construct: expressed in transfected cells
Assay: Measurement of delF508-CFTR-HRP surface expression in CFBE41o- cells;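 as to DelF508-CFTR-HRP Amax %: percent efficacy relative to reference corrector lumacaftor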
Format: cell-based
Conditions: delF508-CFTR-HRP surface expression, CFBE41o- cells; for Emax: read-out: DelF508-CFTR-HRP Amax %; for EC50: read-out: DelF508-CFTR-HRP EC50
In short: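 CFBE41o- bronchial epithelial cells stably expressing delF508-CFTR with HRP in the fourth extracellular loop; expression induced 48h with 500 ng/mL doxycycline, then compounds added (top 10 μM, 10-point 3-fold series, ≤0.5% DMSO) for 24h at 37° C. Surface HRP measured by luminescence with cell-impermeant substrate; EC50 from logistic fit of triplicates, plate-normalized to lowest concentration; efficacy also relative to a reference corrector.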

T1 sequence (P13569 with tags, fused parts or gaps DEL508-508): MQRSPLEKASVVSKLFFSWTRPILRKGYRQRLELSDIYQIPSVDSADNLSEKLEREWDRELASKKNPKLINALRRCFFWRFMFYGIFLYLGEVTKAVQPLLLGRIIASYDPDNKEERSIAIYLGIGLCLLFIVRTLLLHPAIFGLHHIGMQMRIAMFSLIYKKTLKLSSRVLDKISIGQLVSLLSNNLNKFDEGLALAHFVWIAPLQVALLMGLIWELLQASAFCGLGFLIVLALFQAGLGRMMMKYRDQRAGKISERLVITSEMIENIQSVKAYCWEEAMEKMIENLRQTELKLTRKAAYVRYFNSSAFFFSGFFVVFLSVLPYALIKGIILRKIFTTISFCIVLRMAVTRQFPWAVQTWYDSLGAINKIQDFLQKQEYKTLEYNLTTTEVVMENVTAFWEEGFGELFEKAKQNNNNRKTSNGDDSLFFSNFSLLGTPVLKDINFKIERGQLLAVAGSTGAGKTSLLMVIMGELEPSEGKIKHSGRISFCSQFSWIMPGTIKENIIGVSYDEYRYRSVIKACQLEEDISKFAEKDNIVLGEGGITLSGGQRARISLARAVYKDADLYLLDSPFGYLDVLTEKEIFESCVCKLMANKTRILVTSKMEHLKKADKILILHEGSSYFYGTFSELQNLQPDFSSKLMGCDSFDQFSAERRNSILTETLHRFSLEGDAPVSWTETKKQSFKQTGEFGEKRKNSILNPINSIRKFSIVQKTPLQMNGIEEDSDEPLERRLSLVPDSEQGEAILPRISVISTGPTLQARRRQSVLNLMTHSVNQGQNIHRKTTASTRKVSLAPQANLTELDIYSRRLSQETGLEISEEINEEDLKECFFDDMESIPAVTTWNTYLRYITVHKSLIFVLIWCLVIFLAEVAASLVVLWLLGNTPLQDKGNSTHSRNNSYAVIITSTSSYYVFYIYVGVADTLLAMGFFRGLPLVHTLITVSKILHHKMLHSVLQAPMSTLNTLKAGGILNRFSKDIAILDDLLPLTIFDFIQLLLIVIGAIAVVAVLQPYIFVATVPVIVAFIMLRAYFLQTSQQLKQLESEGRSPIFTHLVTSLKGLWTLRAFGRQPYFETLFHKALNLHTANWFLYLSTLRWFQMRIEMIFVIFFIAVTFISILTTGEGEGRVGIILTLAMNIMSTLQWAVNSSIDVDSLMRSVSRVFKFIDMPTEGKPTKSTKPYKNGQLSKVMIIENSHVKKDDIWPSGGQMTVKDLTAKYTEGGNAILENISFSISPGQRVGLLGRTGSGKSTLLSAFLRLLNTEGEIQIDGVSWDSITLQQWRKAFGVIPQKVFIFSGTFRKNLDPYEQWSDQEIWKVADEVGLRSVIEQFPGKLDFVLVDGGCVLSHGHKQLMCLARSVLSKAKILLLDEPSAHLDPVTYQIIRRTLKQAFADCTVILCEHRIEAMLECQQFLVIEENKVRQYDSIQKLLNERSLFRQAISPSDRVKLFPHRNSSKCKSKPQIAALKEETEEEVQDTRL

| SMILES | Emax [%] | EC50 [µM] |
| --- | --- | --- |
| Cc1ccccc1-c1nc(NS(=O)(=O)c2cccc(N[C@@H]3CCNC[C@H]3O)n2)ccc1C(F)(F)F [Example 114, 6-(((3R,4R)-3-hydroxypiperidin-4-yl)amino)-N-(6-(o-tolyl)-5-(trifluoromethyl)pyridin-2-yl)pyridine-2-sulfonamide Hydrochloride] | 66.2 | 3.63 |
| Cc1ccccc1-c1nc(NS(=O)(=O)c2cccc(N[C@H]3CCNC3)n2)ccc1C(F)(F)F [Example 124, (S)-6-(pyrrolidin-3-ylamino)-N-(6-(o-tolyl)-5-(trifluoromethyl)pyridin-2-yl)pyridine-2-sulfonamide Hydrochloride] | 148 | 4.61 |
| O=S(=O)(Nc1ccc(Cl)c(-c2ccccc2C(F)(F)F)n1)c1cccc(N[C@@H]2COC[C@H]2O)n1 [Example 126, N-(5-chloro-6-(2-(trifluoromethyl)phenyl)pyridin-2-yl)-6-(((3R,4S)-4-hydroxytetrahydrofuran-3-yl)amino)pyridine-2-sulfonamide] | 235 | 2.18 |
| Cc1cccc(C)c1-c1cc(C(F)(F)F)cc(NS(=O)(=O)c2cccc(N3CCN(C(=O)OC(C)(C)C)CC3)n2)n1 [Example 132, tert-butyl 4-(6-(N-(6-(2,6-dimethylphenyl)-4-(trifluoromethyl)pyridin-2-yl)sulfamoyl)pyridin-2-yl)piperazine-1-carboxylate] | 894 | 0.803 |
| Cc1ccccc1-c1nc(NS(=O)(=O)c2cccc(N3CCN4CC(F)(F)C[C@H]4C3)n2)ccc1C(F)(F)F [Example 136, (S)-6-(7,7-difluorohexahydropyrrolo[1,2-a]pyrazin-2(1H)-yl)-N-(6-(o-tolyl)-5-(trifluoromethyl)pyridin-2-yl)pyridine-2-sulfonamide] | 862 | 1.11 |
| Cc1ccccc1-c1nc(NS(=O)(=O)c2cccc(N3CCN4C[C@@H](F)C[C@H]4C3)n2)ccc1C(F)(F)F [Example 137, 6-((7S,8aS)-7-fluorohexahydropyrrolo[1,2-a]pyrazin-2(1H)-yl)-N-(6-(o-tolyl)-5-(trifluoromethyl)pyridin-2-yl)pyridine-2-sulfonamide] | 854 | 1.35 |
| COc1cc(NS(=O)(=O)c2cccc(N3CCNCC3)n2)nc(-c2c(C)cccc2C)c1 [Example 139, N-(6-(2,6-dimethylphenyl)-4-methoxypyridin-2-yl)-6-(piperazin-1-yl)pyridine-2-sulfonamide] | 53.2 | 4.97 |
| Cc1ccc(F)cc1-c1nc(NS(=O)(=O)c2cccc(N3CCN(C(C)(C)C)CC3)n2)ccc1C(F)(F)F [Example 143, 6-(4-(tert-butyl)piperazin-1-yl)-N-(6-(5-fluoro-2-methylphenyl)-5-(trifluoromethyl)pyridin-2-yl)pyridine-2-sulfonamide] | 888 | 2.99 |
| Cc1c(F)cccc1-c1nc(NS(=O)(=O)c2cccc(N3CCn4cnnc4C3)n2)ccc1Cl [Example 146, N-(5-chloro-6-(3-fluoro-2-methylphenyl)pyridin-2-yl)-6-(5,6-dihydro-[1,2,4]triazolo[4,3-a]pyrazin-7(8H)-yl)pyridine-2-sulfonamide] | 59.1 | 4.28 |
| O=S(=O)(Nc1ccc(C(F)(F)F)c(-c2ccc(F)cc2Cl)n1)c1cccc(N2CCNCC2)n1 [Example 153, N-(6-(2-Chloro-4-Fluorophenyl)-5-(Trifluoromethyl)Pyridin-2-yl)-6-(Piperazin-1-yl)Pyridine-2-Sulfonamide Hydrochloride] | 159 | 3.8 |
| O=S(=O)(Nc1ccc(C(F)(F)F)c(-c2cccc(F)c2Cl)n1)c1cccc(N2CCNCC2)n1 [Example 155, N-(6-(2-chloro-3-fluorophenyl)-5-(trifluoromethyl)pyridin-2-yl)-6-(piperazin-1-yl)pyridine-2-sulfonamide hydrochloride] | 196 | 4.4 |
| Cc1ccc(C(F)(F)F)cc1-c1nc(NS(=O)(=O)c2cccc(N3CCN(C(=O)OC(C)(C)C)CC3)n2)ccc1Cl [Example 168, tert-butyl 4-(6-(N-(5-chloro-6-(2-methyl-5-(trifluoromethyl)phenyl)pyridin-2-yl)sulfamoyl)pyridin-2-yl)piperazine-1-carboxylate] | 271 | 0.626 |
| Cc1cccc(C)c1-c1nc(NS(=O)(=O)c2cccc(N3CCN(C(=O)OC(C)(C)C)CC3=O)n2)ccc1Cl [Example 188, tert-butyl 4-(6-(N-(5-chloro-6-(2,6-dimethylphenyl)pyridin-2-yl)sulfamoyl)pyridin-2-yl)-3-oxopiperazine-1-carboxylate] | 658 | 0.971 |

Other lines, results leading:

| Emax [%] | EC50 [µM] | SMILES |
| --- | --- | --- |
| 124 | 0.942 | Cc1ccc(OC(F)(F)F)cc1-c1nc(NS(=O)(=O)c2cccc(N)n2)ccc1C(F)(F)F [Example 82, 6-amino-N-(6-(2-methyl-5-(trifluoromethoxy)phenyl)-5-(trifluoromethyl)pyridin-2-yl)pyridine-2-sulfonamide] |
| 115 | 4.11 | Cc1ccc(C#N)cc1-c1nc(NS(=O)(=O)c2cccc(N)n2)ccc1C(F)(F)F [Example 83, 6-amino-N-(6-(5-cyano-2-methylphenyl)-5-(trifluoromethyl)pyridin-2-yl)pyridine-2-sulfonamide] |
| 111 | 1.54 | Cc1ccc(C#N)cc1-c1nc(NS(=O)(=O)c2cccc(N)n2)ccc1Cl [Example 84, 6-amino-N-(5-chloro-6-(5-cyano-2-methylphenyl)pyridin-2-yl)pyridine-2-sulfonamide] |
| 110 | 3.68 | Cc1ccc(C#N)cc1-c1nc(NS(=O)(=O)c2ccnc(N)c2)ccc1Cl [Example 85, 2-amino-N-(5-chloro-6-(5-cyano-2-methylphenyl)pyridin-2-yl)pyridine-4-sulfonamide] |
| 108 | 3.53 | Nc1cccc(S(=O)(=O)Nc2ccc(Cl)c(-c3c(F)cc(F)cc3F)n2)n1 [Example 86, 6-amino-N-(5-chloro-6-(2,4,6-trifluorophenyl)pyridin-2-yl)pyridine-2-sulfonamide] |
| 93.8 | 4.1 | Cc1c(C#N)cccc1-c1nc(NS(=O)(=O)c2ccnc(N)c2)ccc1Cl [Example 87, 2-amino-N-(5-chloro-6-(3-cyano-2-methylphenyl)pyridin-2-yl)pyridine-4-sulfonamide] |
| 92.9 | 3.78 | Cc1ccccc1-c1nc(NS(=O)(=O)c2cccnc2N)ccc1Cl [Example 88, 2-amino-N-(5-chloro-6-(o-tolyl)pyridin-2-yl)pyridine-3-sulfonamide] |
| 50 | 3.78 | N#Cc1ccccc1-c1nc(NS(=O)(=O)c2cccc(N)n2)ccc1Cl [Example 90, 6-amino-N-(5-chloro-6-(2-cyanophenyl)pyridin-2-yl)pyridine-2-sulfonamide] |
| 41.7 | 2.2 | Cc1cc(C#N)ccc1-c1nc(NS(=O)(=O)c2cccc(N)n2)ccc1Cl [Example 91, 6-amino-N-(5-chloro-6-(4-cyano-2-methylphenyl)pyridin-2-yl)pyridine-2-sulfonamide] |
| 23.9 | 1.11 | Cc1cc(C#N)ccc1-c1nc(NS(=O)(=O)c2ccnc(N)c2)ccc1Cl [Example 92, 2-amino-N-(5-chloro-6-(4-cyano-2-methylphenyl)pyridin-2-yl)pyridine-4-sulfonamide] |
| 23.5 | 3.55 | Cc1cccc(C)c1-c1ccc(F)c(NS(=O)(=O)c2cccc(N)n2)n1 [Example 93, 6-amino-N-(6-(2,6-dimethylphenyl)-3-fluoropyridin-2-yl)pyridine-2-sulfonamide] |
| 20.3 | 3.19 | Nc1cccc(S(=O)(=O)Nc2ccc(Cl)c(-c3ccc(C(F)(F)F)cc3)n2)n1 [Example 94, 6-amino-N-(5-chloro-6-(4-(trifluoromethyl)phenyl)pyridin-2-yl)pyridine-2-sulfonamide] |
| 19 | 3.75 | Cc1cccc(C)c1-c1nc(NS(=O)(=O)c2cccc(N)n2)c(F)cc1Cl [Example 95, 6-amino-N-(5-chloro-6-(2,6-dimethylphenyl)-3-fluoropyridin-2-yl)pyridine-2-sulfonamide] |
| 10 | 4.33 | Cc1cccc(C)c1-c1ccc(Cl)c(NS(=O)(=O)c2cccc(N)n2)n1 [Example 96, 6-amino-N-(3-chloro-6-(2,6-dimethylphenyl)pyridin-2-yl)pyridine-2-sulfonamide] |
| 178 | 4.03 | O=S(=O)(Nc1ccc(Cl)c(-c2ccccc2Cl)n1)c1cccc(N2CCNCC2)n1 [Example 156, N-(5-chloro-6-(2-chlorophenyl)pyridin-2-yl)-6-(piperazin-1-yl)pyridine-2-sulfonamide] |
| 180 | 4.28 | O=S(=O)(Nc1ccc(Cl)c(-c2ccc(F)cc2Cl)n1)c1cccc(N2CCNCC2)n1 [Example 157, N-(5-chloro-6-(2-chloro-4-fluorophenyl)pyridin-2-yl)-6-(piperazin-1-yl)pyridine-2-sulfonamide] |
| 130 | 4.42 | O=S(=O)(Nc1ccc(Cl)c(-c2cccc(F)c2Cl)n1)c1cccc(N2CCNCC2)n1 [Example 159, N-(5-chloro-6-(2-chloro-3-fluorophenyl)pyridin-2-yl)-6-(piperazin-1-yl)pyridine-2-sulfonamide hydrochloride] |
| 177 | 3.84 | Cc1c(F)cccc1-c1nc(NS(=O)(=O)c2cccc(N3CCNCC3)n2)ccc1Cl [Example 194, N-[5-chloro-6-(3-fluoro-2-methylphenyl)pyridin-2-yl]-6-(piperazin-1-yl)pyridine-2-sulfonamide hydrochloride] |
